The results in this text go back to US7872004B2, “6-(heterocyclyl-substituted benzyl)-4-oxoquinoline compound and use thereof as HIV integrase inhibitor” (Japan Tobacco Inc., priority 2006, dated 2011).

The test has as its target T1, HIV integrase (Human immunodeficiency virus type 1 group M subtype B, UniProt P12497, F1332H).
T1 construct: HIV integrase full length gene; made in house; host or cells: Escherichia coli BL21(DE3)
Briefly: Determination of enzyme (HIV integrase) inhibitory activity. The settings on record: recombinant integrase protein (F185H), strand transfer plate assay, absorbance at 450 nm. It is filed as biochemical, HIV (Human Immunodeficiency Virus (type 1)). From the text:
The following explains evaluation methods of the HIV integrase inhibitory activity of the compound of the present invention.
(i) Construction of Recombinant Integrase Gene Expression System
HIV integrase full length gene (J. Virol., 67, 425-437 (1993)) in which phenylalanine at codon 185 was substituted by histidine, was inserted between the restriction enzyme NdeI and XhoI sites of plasmid pET21a(+) (Novagen), whereby an integrase expression vector pET21a-IN-F185H was constructed.
(ii) Production and Purification of Integrase Protein
Escherichia coli recombinant BL21(DE3) transformed with plasmid pET21a-IN-F185H obtained in (i) was shake cultured at 30° C. in a liquid medium containing ampicillin. When the culture reached the logarithmic growth phase, isopropyl-β-D-thiogalactopyranoside was added to promote expression of integrase gene. The culture was continued for 3 hr to promote accumulation of the integrase protein. The recombinant E. coli was collected in pellets by centrifugal separation and preserved at −80° C.
The E. coli was suspended in Lysis buffer ([…] HEPES (pH 7.5), 5 mM DTT, 10 mM CHAPS, 10% glycerol) containing 1M sodium chloride and subjected to repeat pressurization and depressurization for rupture, and centrifugal separation at 4° C., 40,000×g, 60 min to recover a water-soluble fraction (supernatant). This was diluted 10-fold with Lysis buffer free of sodium chloride, mixed with SP-Sepharose (GE healthcare Bioscience) and stirred at 4° C. for 60 min to allow adsorption of integrase protein to the resin. The resin was washed with Lysis buffer containing 100 mM sodium chloride and the integrase protein was eluted with Lysis buffer containing 1M sodium chloride.
The eluted integrase protein solution was subjected to a Superdex 75 (GE healthcare Bioscience) column for gel filtration. The protein was eluted with Lysis buffer containing 1M sodium chloride.
The obtained fractions of the integrase protein were collected and preserved at −80° C.
(iii) Preparation of DNA Solution
The following DNA synthesized by Greiner or FASMAC was dissolved in TE buffer (10 mM Tris-hydrochloric acid (pH 8.0), 1 mM EDTA) and mixed with donor DNA, target DNA, and each complementary strand (+ and − strands) to 1 μM. The mixture was heated at 95° C. for 5 min, 80° C. for 10 min, 70° C. for 10 min, 60° C. for 10 min, 50° C. for 10 min and 40° C. for 10 min and kept at 25° C. to give a double stranded DNA, which was used for the test.
(iv) Determination of Enzyme (HIV Integrase) Inhibitory Activity
The donor DNA was diluted with TE buffer to 10 nM (or 5 nM), of which 50 μl was added to each well of streptavidin-coated microtiter plate (Roche) and allowed to adsorb at 37° C. for 60 min. The plate was washed with phosphate buffer (Dulbecco's PBS, Sanko Junyaku Co., Ltd.) containing 0.1% Tween 20 and phosphate buffer. Then, an enzyme reaction mixture (70 μl), a test substance (10 μl) diluted with the enzyme reaction mixture and 100 μg/ml (or 64 μg/ml (2 μM)) integrase protein (10 μl) were added to each well and reacted at 37° C. for 60 min.
Composition of the enzyme reaction mixture: 30 mM MOPS (3-morpholinopropanesulfonic acid), 5 mM magnesium chloride, 3 mM DTT (dithiothreitol), 0.1 mg/ml BSA (bovine serum albumin), 5% glycerol, 10% DMSO (dimethyl sulfoxide), 0.01% Tween 20.
Then, 50 nM (or 25 nM) target DNA (10 μl) was added, reacted at 37° C. for 10 min and washed with phosphate buffer containing 0.1% Tween 20 to stop the reaction.
Then, 100 mU/ml peroxidase labeled anti-digoxigenin antibody solution (Roche, 100 μl) was added, and the mixture was reacted at 37° C. for 60 min, followed by washing with phosphate buffer containing 0.1% Tween 20.
A peroxidase color solution (Bio Rad, 100 μl) was added and allowed to react at room temperature for 4 min (or 3 min). The color reaction was stopped by adding IN sulfuric acid (100 μl). The absorbance at 450 nm was measured. […]
As a reminder, the IC50 is the concentration at which inhibition is half-maximal. As for `CCOC[C@@H](CO)n1cc(C(=O)O)c(=O)c2cc(Cc3cc(N4CCOCC4)cc(Cl)c3F)c(CC)cc21` [Example 1, 6-[3-chloro-2-fluoro-5-(morpholin-4-yl)benzyl]-1-((R)-1-ethoxymethyl-2-hydroxyethyl)-7-ethyl-4-oxo-1,4-dihydroquinoline-3-carboxylic acid], the 50% inhibitory concentration (IC50) is less than 0.01 µM.

Take `COc1cc2c(cc1Cc1cc(N3CCCC3=O)cc(Cl)c1F)c(=O)c(C(=O)O)cn2[C@H](CO)C(C)C` [Example 2, 6-[3-chloro-2-fluoro-5-(2-oxopyrrolidin-1-yl)benzyl]-1-((S)-1-hydroxymethyl-2-methylpropyl)-7-methoxy-4-oxo-1,4-dihydroquinoline-3-carboxylic acid]: the IC50 was less than 0.01 µM. Then `COc1cc2c(cc1Cc1cc(N3CCCC3)cc(Cl)c1F)c(=O)c(C(=O)O)cn2[C@H](CO)C(C)C` [Example 3, 6-[3-chloro-2-fluoro-5-(pyrrolidin-1-yl)benzyl]-1-((S)-1-hydroxymethyl-2-methylpropyl)-7-methoxy-4-oxo-1,4-dihydroquinoline-3-carboxylic acid], with less than 0.01 µM; and `COc1cc2c(cc1Cc1cc(N3CCOC3=O)cc(Cl)c1F)c(=O)c(C(=O)O)cn2[C@H](CO)C(C)C` [Example 4, 6-[3-chloro-2-fluoro-5-(2-oxooxazolidin-3-yl)benzyl]-1-((S)-1-hydroxymethyl-2-methylpropyl)-7-methoxy-4-oxo-1,4-dihydroquinoline-3-carboxylic acid], with less than 0.01 µM. Then `COc1cc2c(cc1Cc1cc(N3CCOCC3)cc(Cl)c1F)c(=O)c(C(=O)O)cn2[C@H](CO)C(C)C` [Example 5, 6-[3-chloro-2-fluoro-5-(morpholin-4-yl)benzyl]-1-((S)-1-hydroxymethyl-2-methylpropyl)-7-methoxy-4-oxo-1,4-dihydroquinoline-3-carboxylic acid], with less than 0.01 µM; and `COc1cc2c(cc1Cc1cc(N3CCCCC3)cc(Cl)c1F)c(=O)c(C(=O)O)cn2[C@H](CO)C(C)C` [Example 6, 6-[3-chloro-2-fluoro-5-(piperidin-1-yl)benzyl]-1-((S)-1-hydroxymethyl-2-methylpropyl)-7-methoxy-4-oxo-1,4-dihydroquinoline-3-carboxylic acid], with less than 0.01 µM. The figure for `COc1cc2c(cc1Cc1cc(N3CCCCC3=O)cc(Cl)c1F)c(=O)c(C(=O)O)cn2[C@H](CO)C(C)C` [Example 7, 6-[3-chloro-2-fluoro-5-(2-oxopiperidin-1-yl)benzyl]-1-((S)-1-hydroxymethyl-2-methylpropyl)-7-methoxy-4-oxo-1,4-dihydroquinoline-3-carboxylic acid] is less than 0.01 µM.

With `COc1cc2c(cc1Cc1cc(N3CC[C@@H](O)C3)cc(Cl)c1F)c(=O)c(C(=O)O)cn2[C@H](CO)C(C)C` [Example 8, 6-[3-chloro-2-fluoro-5-((R)-3-hydroxypyrrolidin-1-yl)benzyl]-1-((S)-1-hydroxymethyl-2-methylpropyl)-7-methoxy-4-oxo-1,4-dihydroquinoline-3-carboxylic acid], the 50% inhibitory concentration (IC50) is less than 0.01 µM. Then `COc1cc2c(cc1Cc1cc(N3CC[C@H](O)C3)cc(Cl)c1F)c(=O)c(C(=O)O)cn2[C@H](CO)C(C)C` [Example 9, 6-[3-chloro-2-fluoro-5-((S)-3-hydroxypyrrolidin-1-yl)benzyl]-1-((S)-1-hydroxymethyl-2-methylpropyl)-7-methoxy-4-oxo-1,4-dihydroquinoline-3-carboxylic acid], with less than 0.01 µM; and `COc1cc2c(cc1Cc1cc(N3CCC(=O)N3C)cc(Cl)c1F)c(=O)c(C(=O)O)cn2[C@H](CO)C(C)C` [Example 10, 6-[3-chloro-2-fluoro-5-(2-methyl-3-oxopyrazolidin-1-yl)benzyl]-1-((S)-1-hydroxymethyl-2-methylpropyl)-7-methoxy-4-oxo-1,4-dihydroquinoline-3-carboxylic acid], with less than 0.01 µM. As for `COc1cc2c(cc1Cc1cc(N3CCN(C(C)=O)CC3)cc(Cl)c1F)c(=O)c(C(=O)O)cn2[C@H](CO)C(C)C` [Example 11, 6-[5-(4-acetylpiperazin-1-yl)-3-chloro-2-fluorobenzyl]-1-((S)-1-hydroxymethyl-2-methylpropyl)-7-methoxy-4-oxo-1,4-dihydroquinoline-3-carboxylic acid], the 50% inhibitory concentration (IC50) was less than 0.01 µM.

Turning to `COc1cc2c(cc1Cc1cc(N3CCC(F)(F)C3)cc(Cl)c1F)c(=O)c(C(=O)O)cn2[C@H](CO)C(C)C` [Example 12, 6-[3-chloro-5-(3,3-difluoropyrrolidin-1-yl)-2-fluorobenzyl]-1-((S)-1-hydroxymethyl-2-methylpropyl)-7-methoxy-4-oxo-1,4-dihydroquinoline-3-carboxylic acid], the concentration for half-maximal inhibition (IC50) is less than 0.01 µM. Then `COc1cc2c(cc1Cc1cc(N3CC[C@@H](F)C3)cc(Cl)c1F)c(=O)c(C(=O)O)cn2[C@H](CO)C(C)C` [Example 13, 6-[3-chloro-2-fluoro-5-((R)-3-fluoropyrrolidin-1-yl)benzyl]-1-((S)-1-hydroxymethyl-2-methylpropyl)-7-methoxy-4-oxo-1,4-dihydroquinoline-3-carboxylic acid], with less than 0.01 µM; and `COc1cc2c(cc1Cc1cc(N3CC[C@H](F)C3)cc(Cl)c1F)c(=O)c(C(=O)O)cn2[C@H](CO)C(C)C` [Example 14, 6-[3-chloro-2-fluoro-5-((S)-3-fluoropyrrolidin-1-yl)benzyl]-1-((S)-1-hydroxymethyl-2-methylpropyl)-7-methoxy-4-oxo-1,4-dihydroquinoline-3-carboxylic acid], with less than 0.01 µM. Then `COc1cc2c(cc1Cc1cc(N3CCOCC3)cc(Cl)c1F)c(=O)c(C(=O)O)cn2[C@H](CO)[C@@H](C)OC` [Example 15, 6-[3-chloro-2-fluoro-5-(morpholin-4-yl)benzyl]-1-((1R,2R)-1-hydroxymethyl-2-methoxypropyl)-7-methoxy-4-oxo-1,4-dihydroquinoline-3-carboxylic acid], with less than 0.01 µM. Then `COc1cc2c(cc1Cc1cc(N3CCOCC3)c(F)c(Cl)c1F)c(=O)c(C(=O)O)cn2[C@H](CO)C(C)C` [Example 16, 6-[3-chloro-2,4-difluoro-5-(morpholin-4-yl)benzyl]-1-((S)-1-hydroxymethyl-2-methylpropyl)-7-methoxy-4-oxo-1,4-dihydroquinoline-3-carboxylic acid], with less than 0.01 µM; and `COc1cc2c(cc1Cc1cc(N3CCOCC3)cc(Cl)c1F)c(=O)c(C(=O)O)cn2[C@H](CO)C(C)(C)C` [Example 17, 6-[3-chloro-2-fluoro-5-(morpholin-4-yl)benzyl]-1-((S)-1-hydroxymethyl-2,2-dimethylpropyl)-7-methoxy-4-oxo-1,4-dihydroquinoline-3-carboxylic acid], with less than 0.01 µM; and `CCc1cc2c(cc1Cc1cc(N3CCOCC3)cc(Cl)c1F)c(=O)c(C(=O)O)cn2[C@H](CO)C(C)(C)C` [Example 18, 6-[3-chloro-2-fluoro-5-(morpholin-4-yl)benzyl]-7-ethyl-1-((S)-1-hydroxymethyl-2,2-dimethylpropyl)-4-oxo-1,4-dihydroquinoline-3-carboxylic acid], with less than 0.01 µM. With `CCOC[C@@H](CO)n1cc(C(=O)O)c(=O)c2cc(Cc3cc(N4CCOCC4)cc(Cl)c3F)c(OC)cc21` [Example 19, 6-[3-chloro-2-fluoro-5-(morpholin-4-yl)benzyl]-1-((R)-1-ethoxymethyl-2-hydroxyethyl)-7-methoxy-4-oxo-1,4-dihydroquinoline-3-carboxylic acid], the IC50 is less than 0.01 µM.
